# Assay results reported in patent US20250263753A1, “BRIDGED CYCLE-BASED INHIBITORS OF DNA-DEPENDENT PROTEIN KINASE AND COMPOSITIONS AND APPLICATION IN GENE EDITING” (Juno Therapeutics, Inc., priority 2023, published 2025).
# Where two headings read alike, the source gives them in different places.
# Tests used:
# DNA-PK = DNA-PK (Homo sapiens (Human), UniProt P78527); test: DNA-PK biochemical assay (Reaction Biology HotSpot kinase assay, 10 μM ATP)
# Method: DNA-PK Biochemical Assay Using Reaction Biology's HotSpot Kinase Assay Protocol:
# Reagent: Base Reaction buffer; 20 mM Hepes (pH 7.5), 10 mM MgCl2, 1 mM EGTA, 0.01% Brij35, 0.02 mg/ml BSA, 0.1 mM Na3VO4, 2 mM DTT, 1% DMSO Required cofactors are added individually to each kinase reaction.
# Reaction Procedure: 1. Prepare substrate in freshly prepared Reaction Buffer; 2. Deliver any required cofactors to the substrate solution above; 3. Deliver kinase into the substrate solution and gently mix; 4. Deliver compounds in 100% DMSO into the kinase reaction mixture by Acoustic technology (Echo550; nanoliter range), incubate for 20 min at room temperature; 5. Deliver 33P-ATP into the reaction mixture to initiate the reaction; 6. Incubate for 2 hours at room temperature; 7. Detect kinase activity by P81 filter-binding method.
# ATM = ATM (Homo sapiens (Human), UniProt Q13315); test: ATM biochemical assay (Reaction Biology HTRF kinase assay, 10 μM ATP)
# Method: Ataxia-Telangiectasia Mutated (ATM) Biochemical Assay Using Reaction Biology's HTRF Kinase Assay Protocol:
# The assay detects kinase activity by antibody based HTRF assay. The GST-tagged p53 protein serves as substrate and Eu-labeled-antibody with specific phosphorylation site binds upon phosphorylation which is monitored by HTRF from the anti-GST-d2.
# Reagent: Reaction buffer; 50 mM Hepes (pH 7.5), 150 mM NaCl, 10 mM MnCl2, 1% Glycerol, 0.01% Brij35, 1 mM DTT, 1% DMSO.
# Substrate: Human p53 (aa2-393), RBC produced in E. coli, N-terminal GST-Tag, MW=70.42 kDa.
# Detection; MAb Anti-p53-pS15-Eu cryptate, CisBio cat #61P08KAZ; MAb Anti GST-d2
# Reaction Procedure: 1. Deliver 2× Enzyme in wells of reaction plate except No E control wells. Add buffer instead; 2. Deliver compounds in 100% DMSO into the kinase reaction mixture by Acoustic technology (Echo550; nanoliter range), incubate for 30 min at room temperature; 3. Deliver 2× substrate+ATP mixture into the reaction mixture to initiate the reaction; 4. Incubate for 2 hours at room temperature.
# HTRF Detection: 1. Deliver 2× Stop/Detection mixture and incubate for 2 hours to overnight in the dark. 2. HTRF measurement (Ex/Em1/Em2=320/615/665 nm) in EnVision.
# [1] = target: PI3Kδ (His-PIK3CD/PIK3R1, p110 delta/p85 alpha) (Homo sapiens (Human), UniProt O00329); test: PI3Kδ biochemical assay (HTRF/FRET probe); assay type: binding; settings: class symbol
# Chain of PI3Kδ (His-PIK3CD/PIK3R1, p110 delta/p85 alpha) (O00329 whole entry, species assumed): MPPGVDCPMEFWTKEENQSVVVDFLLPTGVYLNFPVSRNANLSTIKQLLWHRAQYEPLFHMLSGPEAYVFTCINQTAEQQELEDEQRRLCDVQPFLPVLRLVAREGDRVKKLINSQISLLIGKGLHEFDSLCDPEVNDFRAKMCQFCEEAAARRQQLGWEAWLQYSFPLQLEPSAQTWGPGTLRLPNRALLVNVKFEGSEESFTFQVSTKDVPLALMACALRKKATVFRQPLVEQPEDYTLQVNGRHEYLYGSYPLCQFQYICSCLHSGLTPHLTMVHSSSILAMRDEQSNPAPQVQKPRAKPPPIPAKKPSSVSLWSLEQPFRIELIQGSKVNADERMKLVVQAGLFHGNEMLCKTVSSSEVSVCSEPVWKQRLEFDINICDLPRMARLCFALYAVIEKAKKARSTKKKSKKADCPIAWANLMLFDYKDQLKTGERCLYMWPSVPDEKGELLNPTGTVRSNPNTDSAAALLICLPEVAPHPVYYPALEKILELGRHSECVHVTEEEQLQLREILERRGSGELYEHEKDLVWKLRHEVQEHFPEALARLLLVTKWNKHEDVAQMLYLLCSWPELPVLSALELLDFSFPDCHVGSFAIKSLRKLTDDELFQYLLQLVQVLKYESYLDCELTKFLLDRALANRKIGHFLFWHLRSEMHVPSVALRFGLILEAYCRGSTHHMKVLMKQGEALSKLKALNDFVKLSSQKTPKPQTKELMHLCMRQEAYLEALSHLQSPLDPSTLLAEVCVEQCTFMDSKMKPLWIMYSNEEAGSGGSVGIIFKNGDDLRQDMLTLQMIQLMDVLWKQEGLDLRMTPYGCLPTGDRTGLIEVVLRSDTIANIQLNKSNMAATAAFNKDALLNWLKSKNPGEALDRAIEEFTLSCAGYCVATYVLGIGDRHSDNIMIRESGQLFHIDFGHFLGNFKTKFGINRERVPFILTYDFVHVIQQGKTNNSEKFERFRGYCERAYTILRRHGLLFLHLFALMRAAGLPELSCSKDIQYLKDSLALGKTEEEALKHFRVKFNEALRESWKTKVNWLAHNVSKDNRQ
# Chain of PI3Kδ (His-PIK3CD/PIK3R1, p110 delta/p85 alpha) (P27986 whole entry partner, species assumed): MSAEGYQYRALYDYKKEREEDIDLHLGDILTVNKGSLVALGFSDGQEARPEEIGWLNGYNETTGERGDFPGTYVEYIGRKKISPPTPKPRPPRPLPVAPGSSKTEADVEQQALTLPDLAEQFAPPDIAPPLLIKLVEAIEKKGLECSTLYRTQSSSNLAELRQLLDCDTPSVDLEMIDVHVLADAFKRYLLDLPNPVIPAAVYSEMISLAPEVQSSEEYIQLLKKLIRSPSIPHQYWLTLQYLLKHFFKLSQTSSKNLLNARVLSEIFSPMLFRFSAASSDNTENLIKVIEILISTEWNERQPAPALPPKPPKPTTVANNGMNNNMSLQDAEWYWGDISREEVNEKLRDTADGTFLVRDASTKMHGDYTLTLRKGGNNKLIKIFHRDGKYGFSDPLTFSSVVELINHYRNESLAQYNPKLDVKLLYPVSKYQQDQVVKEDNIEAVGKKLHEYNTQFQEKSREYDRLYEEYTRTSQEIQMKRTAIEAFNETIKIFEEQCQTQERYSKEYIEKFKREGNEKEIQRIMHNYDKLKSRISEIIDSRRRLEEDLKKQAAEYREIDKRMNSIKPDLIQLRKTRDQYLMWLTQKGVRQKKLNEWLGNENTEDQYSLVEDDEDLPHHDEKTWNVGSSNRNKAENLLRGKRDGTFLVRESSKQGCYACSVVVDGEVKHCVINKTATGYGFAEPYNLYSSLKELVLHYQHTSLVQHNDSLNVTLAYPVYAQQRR
# Method: Phosphoinositide 3-kinase (PI3K) Biochemical Assay: A solution was prepared containing 0.2 nM Anti-HIS-Terbium (Cisbio, 64CUSTAZU), 40 nM designed-probe and 1.0 nM His-PIK3CD/PIK3R1 (p110 delta/p85 alpha) in FRET Buffer (20 mM HEPES, 10 mM MgCl2, 0.015% Brij-35, 4 mM DTT, 0.05 mg/mL BSA).
# [2] = target: PI3Kα (His-PIK3CA/PIK3R1, p110 alpha/p85 alpha) (Homo sapiens (Human), UniProt P42336); test: PI3Kα biochemical assay (HTRF/FRET probe); assay type: binding; settings: class symbol
# Chain of PI3Kα (His-PIK3CA/PIK3R1, p110 alpha/p85 alpha) (P42336 whole entry, species assumed): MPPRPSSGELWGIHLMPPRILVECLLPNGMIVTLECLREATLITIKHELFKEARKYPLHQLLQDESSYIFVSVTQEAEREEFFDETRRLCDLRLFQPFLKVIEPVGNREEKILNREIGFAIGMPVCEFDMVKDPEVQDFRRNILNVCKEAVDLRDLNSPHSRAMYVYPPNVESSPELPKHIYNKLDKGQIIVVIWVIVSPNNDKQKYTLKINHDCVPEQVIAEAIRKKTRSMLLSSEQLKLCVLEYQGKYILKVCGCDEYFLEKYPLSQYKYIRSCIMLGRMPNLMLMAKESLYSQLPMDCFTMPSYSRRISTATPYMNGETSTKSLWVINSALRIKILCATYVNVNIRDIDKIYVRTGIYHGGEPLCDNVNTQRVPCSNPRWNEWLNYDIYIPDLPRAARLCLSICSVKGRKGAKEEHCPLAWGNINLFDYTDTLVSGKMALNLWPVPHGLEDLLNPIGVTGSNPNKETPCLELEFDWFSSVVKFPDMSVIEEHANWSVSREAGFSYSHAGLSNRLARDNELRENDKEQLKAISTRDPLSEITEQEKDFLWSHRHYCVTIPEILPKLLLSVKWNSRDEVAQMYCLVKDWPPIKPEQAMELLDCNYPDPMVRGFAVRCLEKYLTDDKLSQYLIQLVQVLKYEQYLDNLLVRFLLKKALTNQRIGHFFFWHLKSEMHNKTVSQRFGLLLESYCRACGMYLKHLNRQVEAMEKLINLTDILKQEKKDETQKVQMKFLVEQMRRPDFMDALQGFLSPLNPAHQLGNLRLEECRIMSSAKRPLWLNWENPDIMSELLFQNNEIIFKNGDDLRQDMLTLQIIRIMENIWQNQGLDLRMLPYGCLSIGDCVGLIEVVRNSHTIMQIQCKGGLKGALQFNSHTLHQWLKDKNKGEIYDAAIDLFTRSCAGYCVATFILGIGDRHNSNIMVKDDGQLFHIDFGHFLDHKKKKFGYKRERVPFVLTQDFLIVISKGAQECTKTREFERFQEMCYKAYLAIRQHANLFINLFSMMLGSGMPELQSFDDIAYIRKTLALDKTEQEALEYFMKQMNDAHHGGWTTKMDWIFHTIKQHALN
# Chain of PI3Kα (His-PIK3CA/PIK3R1, p110 alpha/p85 alpha) (P27986 whole entry partner, species assumed): as the sequence (P27986 whole entry partner, species assumed) above
# Method: Phosphoinositide 3-kinase α (PI3Kα) Biochemical Assay: A solution was prepared containing 0.2 nM Anti-HIS-Terbium (Cisbio, 64CUSTAZU), 3.7 nM designed-probe and 1.0 nM His-PIK3CA/PIK3R1 (p110 alpha/p85 alpha) in FRET Buffer (20 mM HEPES, 10 mM MgCl2, 0.015% Brij-35, 4 mM DTT, 0.05 mg/mL BSA).
# [3] = read-out: DNA-PK HotSpot 10 μM ATP IC50, class symbol
# [4] = read-out: ATM HTRF 10 μM ATP IC50, class symbol
SMILES,IC50 (DNA-PK; [3]) [nM],IC50 (ATM; class symbol) [nM],IC50 [1] [nM],IC50 [2] [nM],IC50 (ATM; [4]) [nM],IC50 (DNA-PK; class symbol) [nM]
"Cc1cc(-c2cnco2)c(F)cc1Nc1ncc2c(n1)n(C13CCC(O)(CC1)C3)c(=O)n2C [Compound 36, 2-((5-fluoro-2-methyl-4-(oxazol-5-yl)phenyl)amino)-9-(4-hydroxybicyclo[2.2.1]heptan-1-yl)-7-methyl-7,9-dihydro-8H-purin-8-one]",< 1,–,≥ 1000,100 to 1000,< 1,–
"Cc1cc2ncnn2cc1Nc1ncc2c(n1)n(C13CC(C(F)(F)F)(C1)C3)c(=O)n2C [Compound 18, 7-methyl-2-((7-methyl-[1,2,4]triazolo[1,5-a]pyridin-6-yl)amino)-9-(3-(trifluoromethyl)bicyclo[1.1.1]pentan-1-yl)-7,9-dihydro-8H-purin-8-one]",–,1 to 10,≥ 1000,≥ 1000,–,1 to 10
"COC12CCC(N3CC(=O)N(C)c4cnc(Nc5cc6nsnc6cc5C)nc43)(CC1)C2 [Compound 64, 8-(4-methoxybicyclo[2.2.1]heptan-1-yl)-5-methyl-2-((6-methylbenzo[c][1,2,5]thiadiazol-5-yl)amino)-7,8-dihydropteridin-6(5H)-one]",< 1,1 to 10,100 to 1000,10 to 100,–,–
"Cc1cc2c(cc1Nc1ncc3c(n1)n(C14CC(C#N)(C1)C4)c(=O)n3C)OCO2 [Compound 17, 3-(7-methyl-2-((6-methylbenzo[d][1,3]dioxol-5-yl)amino)-8-oxo-7,8-dihydro-9H-purin-9-yl) bicyclo[1.1.1]pentane-1-carbonitrile]",–,100 to 1000,≥ 1000,≥ 1000,–,1 to 10
"Cc1cc2c(cc1Nc1ncc3c(n1)n(C14CCC(C#N)(CC1)CC4)c(=O)n3C)OCO2 [Compound 24, 4-(7-methyl-2-((6-methylbenzo[d][1,3]dioxol-5-yl)amino)-8-oxo-7,8-dihydro-9H-purin-9-yl) bicyclo[2.2.2]octane-1-carbonitrile]",< 1,10 to 100,≥ 1000,100 to 1000,–,–
"Cc1cc2c(cc1Nc1ncc3c(C)nn(C45CC(C4)C5)c3n1)OCO2 [Compound 48, 1-(bicyclo[1.1.1]pentan-1-yl)-3-methyl-N-(6-methylbenzo[d][1,3]dioxol-5-yl)-1H-pyrazolo[3,4-d]pyrimidin-6-amine]",–,100 to 1000,≥ 1000,≥ 1000,–,1 to 10
"Cc1cc(-c2cnn(C)c2)c(F)cc1Nc1ncc2c(n1)n(C13CCC(O)(CC1)C3)c(=O)n2C [Compound 37, 2-((5-fluoro-2-methyl-4-(1-methyl-1H-pyrazol-4-yl)phenyl)amino)-9-(4-hydroxybicyclo[2.2.1]heptan-1-yl)-7-methyl-7,9-dihydro-8H-purin-8-one]",< 1,1 to 10,≥ 1000,100 to 1000,–,–
"COC12CCC(n3c(=O)n(C)c4cnc(Nc5cc6c(cc5C)OCCO6)nc43)(CC1)C2 [Compound 10, 9-(4-methoxybicyclo[2.2.1]heptan-1-yl)-7-methyl-2-((7-methyl-2,3-dihydrobenzo[b][1,4]dioxin-6-yl)amino)-7,9-dihydro-8H-purin-8-one]",< 1,100 to 1000,≥ 1000,10 to 100,–,–
"Cc1cc2nsnc2cc1Nc1ncc2c(C)nn(C34CC(C3)C4)c2n1 [Compound 50, N-(1-(bicyclo[1.1.1]pentan-1-yl)-3-methyl-1H-pyrazolo[3,4-d]pyrimidin-6-yl)-6-methylbenzo[c][1,2,5]thiadiazol-5-amine]",< 1,10 to 100,≥ 1000,≥ 1000,–,–

# Next, values leading:
IC50 (DNA-PK; [3]) [nM],IC50 (ATM; class symbol) [nM],IC50 [1] [nM],IC50 [2] [nM],IC50 (ATM; [4]) [nM],IC50 (DNA-PK; class symbol) [nM],SMILES
< 1,100 to 1000,≥ 1000,100 to 1000,–,–,"Cc1cc2nsnc2cc1Nc1ncc2c(n1)n(C13CC(F)(C1)C3)c(=O)n2C [Compound 14, 9-(3-fluorobicyclo[1.1.1]pentan-1-yl)-7-methyl-2-((6-methylbenzo[c][1,2,5]thiadiazol-5-yl)amino)-7,9-dihydro-8H-purin-8-one]"
< 1,100 to 1000,100 to 1000,10 to 100,–,–,"Cc1cc2nccnc2cc1Nc1ncc2c(n1)N(C13CCC(O)(CC1)C3)C(=O)C21CC1 [Compound 67, 7′-(4-hydroxybicyclo[2.2.1]heptan-1-yl)-2′-((7-methylquinoxalin-6-yl)amino)spiro[cyclopropane-1,5′-pyrrolo[2,3-d]pyrimidin]-6′(7′H)-one]"
< 1,–,≥ 1000,100 to 1000,≥ 1000,–,"Cc1cc2nsnc2cc1Nc1ncc2c(n1)N(C13CC(F)(C1)C3)C(=O)C21CC1 [Compound 73, 7′-(3-fluorobicyclo[1.1.1]pentan-1-yl)-2′-((6-methylbenzo[c][1,2,5]thiadiazol-5-yl)amino)spiro[cyclopropane-1,5′-pyrrolo[2,3-d]pyrimidin]-6′(7′H)-one]"
–,100 to 1000,≥ 1000,≥ 1000,–,10 to 100,"Cc1cc2c(cc1Nc1ncc3c(n1)n(C14CC(F)(C1)C4)c(=O)n3C)OCCO2 [Compound 16, 9-(3-fluorobicyclo[1.1.1]pentan-1-yl)-7-methyl-2-((7-methyl-2,3-dihydrobenzo[b][1,4]dioxin-6-yl)amino)-7,9-dihydro-8H-purin-8-one]"
< 1,100 to 1000,100 to 1000,10 to 100,–,–,"Cc1cc2ncnn2cc1Nc1ncc2c(n1)N(C13CCC(O)(CC1)C3)C(=O)C21CC1 [Compound 66, 7′-(4-hydroxybicyclo[2.2.1]heptan-1-yl)-2′-((7-methyl-[1,2,4]triazolo[1,5-a]pyridin-6-yl)amino)spiro[cyclopropane-1,5′-pyrrolo[2,3-d]pyrimidin]-6′(7′H)-one]"
–,10 to 100,≥ 1000,100 to 1000,–,1 to 10,"Cc1cc(-c2cnn(C)c2)ncc1Nc1ncc2c(n1)N(C13CC(F)(C1)C3)C(=O)C21CC1 [Compound 75, 7′-(3-fluorobicyclo[1.1.1]pentan-1-yl)-2′-((4-methyl-6-(1-methyl-1H-pyrazol-4-yl)pyridin-3-yl)amino)spiro[cyclopropane-1,5′-pyrrolo[2,3-d]pyrimidin]-6′(7′H)-one]"
< 1,1 to 10,≥ 1000,10 to 100,–,–,"Cc1cc2nsnc2cc1Nc1ncc2c(n1)n(C13CCC(O)(CC1)C3)c(=O)n2C [Compound 3, 9-(4-hydroxybicyclo[2.2.1]heptan-1-yl)-7-methyl-2-((6-methylbenzo[c][1,2,5]thiadiazol-5-yl)amino)-7,9-dihydro-8H-purin-8-one]"
< 1,100 to 1000,≥ 1000,≥ 1000,–,–,"Cc1cc2ncnn2cc1Nc1ncc2c(n1)N(C13CC(F)(C1)C3)C(=O)C21CC1 [Compound 70, 7′-(3-fluorobicyclo[1.1.1]pentan-1-yl)-2′-((7-methyl-[1,2,4]triazolo[1,5-a]pyridin-6-yl)amino)spiro[cyclopropane-1,5′-pyrrolo[2,3-d]pyrimidin]-6′(7′H)-one]"
< 1,100 to 1000,≥ 1000,100 to 1000,–,–,"Cc1cc2nccnc2cc1Nc1ncc2c(n1)N(C13CC(F)(C1)C3)C(=O)C21CC1 [Compound 72, 7′-(3-fluorobicyclo[1.1.1]pentan-1-yl)-2′-((7-methylquinoxalin-6-yl)amino)spiro[cyclopropane-1,5′-pyrrolo[2,3-d]pyrimidin]-6′(7′H)-one]"
